Values of other authors as cited in PMC11187573, “Identification of SARS-CoV-2 Mpro inhibitors through deep reinforcement learning for de novo drug design and computational chemistry approaches” (RSC Medicinal Chemistry, 2024).

Test system: Mpro
Settings: ML dataset, Origin COVID_Moonshot; ref COVID Moonshot; cited from earlier work

SMILES | IC50 [µM]
CC(C)(C)c1ccc(N(C(=O)c2cnco2)C(C(=O)NCCc2cccc(F)c2)c2cccnc2)cc1 (centres unmarked) [ALP-POS-305f6ec3-49] | 4.78
CC(C)(C)c1ccc(N(C(=O)c2c[nH]c(=O)[nH]2)C(C(=O)NCCc2cccc(F)c2)c2cccnc2)cc1 (centres unmarked) [ALP-POS-305f6ec3-52] | 15.9
Cn1cnc(C(=O)N(c2ccc(C(C)(C)C)cc2)C(C(=O)NCCc2cccc(F)c2)c2cccnc2)n1 (centres unmarked) [ALP-POS-305f6ec3-55] | 74.2
CC(C)(C)c1ccc(N(C(=O)c2cc(=O)[nH][nH]2)C(C(=O)NCCc2cccc(F)c2)c2cccnc2)cc1 (centres unmarked) [ALP-POS-305f6ec3-59] | 39.7
O=C(Nc1cncc2ccccc12)C1CCOc2c1ccc(Cl)c2Cl (centres unmarked) [ALP-POS-869ac754-2] | 3.31
O=C(Nn1nnc2ccccc21)C(Cc1cccc(Cl)c1)c1ccc(N2CCCCC2=O)cc1 (centres unmarked) [ALP-POS-a3de0cb1-13] | 66.4
O=C1CCCCN1c1ccc(N(Cc2ccccc2)C(=O)Cc2n[nH]c3ccccc23)cc1 [ALP-POS-a3de0cb1-16] | 39.4
O=C(NCCc1cccc(F)c1)C(c1cccnc1)N(C(=O)c1ccco1)c1ccc(C2CCCC2)cc1 (centres unmarked) [ALP-POS-b0bc6a46-5] | 0.282
O=C(NCCc1cccc(F)c1)C(c1cccnc1)N(Cc1ccccc1C1CCC1)C(=O)c1ccco1 (centres unmarked) [ALP-POS-b0bc6a46-10] | 1.93
CC(C)(C)c1cnc(N(C(=O)c2ccco2)C(C(=O)NCCc2cccc(F)c2)c2cccnc2)s1 (centres unmarked) [ALP-POS-b0bc6a46-12] | 3.94
CSc1ccc(CN(C(=O)c2ccco2)C(C(=O)NCCc2cccc(F)c2)c2cccnc2)cc1C#N (centres unmarked) [ALP-POS-b0bc6a46-20] | 54.9
COc1ccc(N(C(=O)c2ccco2)C(C(=O)NCCc2cccc(F)c2)c2cccnc2)cc1 (centres unmarked) [ALP-POS-b0bc6a46-22] | 30.5
N#Cc1ccc(N(C(=O)c2ccco2)C(C(=O)NCCc2cccc(F)c2)c2cccnc2)cc1 (centres unmarked) [ALP-POS-b0bc6a46-24] | 10.4
O=C(NCCc1cccc(F)c1)C(c1cccnc1)N(C(=O)c1ccco1)C1CCN(c2ccccc2)CC1 (centres unmarked) [ALP-POS-b0bc6a46-28] | 79.6
COc1ccc2nnn(CC(=O)N(Cc3ccccn3)c3ccc(C4CCNCC4)cc3)c2c1 [ALP-POS-c0c213c9-1] | 35.5
CC(C)(C(N)=O)c1ccc(N(Cc2ccsc2)C(=O)Cn2nnc3ccccc32)cc1 [ALP-POS-c0c213c9-6] | 3.17
Cc1ccc(N(Cc2cscn2)C(=O)Cc2cncc3ccccc23)cc1 [ALP-POS-c3a96089-1] | 10.9
CNc1ccc(N(Cc2ccsc2)C(=O)Cn2nnc3ccccc32)cc1 [ALP-POS-c59291d4-4] | 11.5
O=C(Nc1cncc2ccccc12)C1CCOc2c(O)cc(Cl)cc21 (centres unmarked) [ALP-POS-ce760d3f-1] | 0.579
CN1C(=O)CCc2cc(N(C(=O)c3cocn3)C(C(=O)NCCc3cccc(F)c3)c3cccnc3)ccc21 (centres unmarked) [ALP-POS-ced8ea4d-1] | 63.5
CC(C)S(=O)(=O)c1ccc(N(C(=O)c2cocn2)C(C(=O)NCCc2cccc(F)c2)c2cccnc2)cc1 (centres unmarked) [ALP-POS-ced8ea4d-5] | 66.1

SMILES | IC50 [µM]
Cn1ncc2cc(N(C(=O)c3cocn3)C(C(=O)NCCc3cccc(F)c3)c3cccnc3)ccc21 (centres unmarked) [ALP-POS-ced8ea4d-8] | 48
CS(=O)(=O)c1ccc(N(C(=O)c2cocn2)C(C(=O)NCCc2cccc(F)c2)c2cccnc2)cc1 (centres unmarked) [ALP-POS-ced8ea4d-9] | 75.9
CS(=O)(=O)Cc1ccc(N(C(=O)c2cocn2)C(C(=O)NCCc2cccc(F)c2)c2cccnc2)cc1 (centres unmarked) [ALP-POS-ced8ea4d-11] | 27.7
CC(C)Oc1ccc(N(C(=O)c2cocn2)C(C(=O)NCCc2cccc(F)c2)c2cccnc2)cc1 (centres unmarked) [ALP-POS-ced8ea4d-12] | 0.609
O=C(NCCc1cccc(F)c1)C(c1cccnc1)N(C(=O)c1cocn1)c1ccc(Cn2cccn2)cc1 (centres unmarked) [ALP-POS-ced8ea4d-16] | 8.34
COc1ccc(N(C(=O)c2cocn2)C(C(=O)NCCc2cccc(F)c2)c2cccnc2)cc1 (centres unmarked) [ALP-POS-ced8ea4d-19] | 22.2
Cn1ccc2cc(N(C(=O)c3cocn3)C(C(=O)NCCc3cccc(F)c3)c3cccnc3)ccc21 (centres unmarked) [ALP-POS-ced8ea4d-20] | 23.8
O=C(NCCc1cccc(F)c1)C(c1cccnc1)N(C(=O)c1cocn1)c1ccc2ncsc2c1 (centres unmarked) [ALP-POS-ced8ea4d-24] | 60.5
Cc1ccc(N(C(=O)c2cocn2)C(C(=O)NCCc2cccc(F)c2)c2cccnc2)cc1 (centres unmarked) [ALP-POS-ced8ea4d-27] | 50.2
O=C(NCCc1cccc(F)c1)C(c1cccnc1)N(C(=O)c1cocn1)c1ccccc1 (centres unmarked) [ALP-POS-ced8ea4d-28] | 89.2
O=C(NCCc1cccc(F)c1)C(c1cccnc1)N(C(=O)c1cocn1)c1ccc(OC2CCOC2)cc1 (centres unmarked) [ALP-POS-ced8ea4d-32] | 6.32
O=C(NCCc1cccc(F)c1)C(c1cccnc1)N(C(=O)c1cocn1)c1cn(Cc2ccccc2)cn1 (centres unmarked) [ALP-POS-ced8ea4d-35] | 27.3
O=C(NCCc1cccc(F)c1)C(c1cccnc1)N(C(=O)c1cocn1)c1ccc2scnc2c1 (centres unmarked) [ALP-POS-ced8ea4d-36] | 84
O=C(NCCc1cccc(F)c1)C(c1cccnc1)N(C(=O)c1cocn1)c1ccc(C(F)(F)F)nc1 (centres unmarked) [ALP-POS-ced8ea4d-37] | 36.4
O=C(NCCc1cccc(F)c1)C(c1cccnc1)N(C(=O)c1cocn1)c1cnc(C2CCC2)nc1 (centres unmarked) [ALP-POS-ced8ea4d-63] | 69.1
CCOc1ccc(N(C(=O)c2cocn2)C(C(=O)NCCc2cccc(F)c2)c2cccnc2)cc1 (centres unmarked) [ALP-POS-ced8ea4d-67] | 15.5
Cc1ccncc1C(C(=O)NCCc1cccc(F)c1)N(C(=O)c1cocn1)c1ccc(C(C)(C)C)cc1 (centres unmarked) [ALP-POS-d0876c20-1] | 0.653
CC(C)(C)c1ccc(N(C(=O)c2cocn2)C(C(=O)NCCc2cccc(F)c2)c2ccnnc2)cc1 (centres unmarked) [ALP-POS-d0876c20-5] | 2.05
COc1nccnc1C(C(=O)NCCc1cccc(F)c1)N(C(=O)c1cocn1)c1ccc(C(C)(C)C)cc1 (centres unmarked) [ALP-POS-d0876c20-15] | 94.9
CC(C)(C)c1ccc(N(C(=O)c2cocn2)C(C(=O)NCCc2cccc(F)c2)c2cncnc2)cc1 (centres unmarked) [ALP-POS-d0876c20-17] | 2.92
COc1ncncc1C(C(=O)NCCc1cccc(F)c1)N(C(=O)c1cocn1)c1ccc(C(C)(C)C)cc1 (centres unmarked) [ALP-POS-d0876c20-19] | 8.43

SMILES | IC50 [µM]
CC(C)(C)c1ccc(N(C(=O)c2cocn2)C(C(=O)NCCc2cccc(F)c2)c2cnccn2)cc1 (centres unmarked) [ALP-POS-d0876c20-21] | 1.21
CN(C)c1ccc(N(Cc2ccsc2)C(=O)Cn2nnc3ccccc32)cc1 [ALP-POS-d2866bdf-1] | 3.58
O=C(NCCc1cccc(F)c1)C(c1cccnc1)N(C(=O)c1cnc[nH]1)c1ccc(OC2CCOC2)cc1 (centres unmarked) [ALP-POS-e980f4ea-32] | 25.8
O=C(COc1cccc(Cl)c1)Nc1cncc2ccccc12 [ALP-POS-f13221e1-2] | 8.59
O=C(CC1(C(=O)Nc2cncc3ccccc23)CCOc2ccc(Cl)cc21)N1CCN(CC(F)(F)CO)CC1 (centres unmarked) [ALP-UNI-8e43a71e-10] | 7.28
O=C(Nc1cncc2ccccc12)C1CCNc2cc(Cl)c(Cl)cc21 (centres unmarked) [ALP-UNI-3735e77e-4] | 0.154
O=C(Nc1cncc2ccccc12)C1CCN(Cc2cnc[nH]2)c2ccc(Cl)cc21 (centres unmarked) [ALP-UNI-b33a865d-1] | 1.12
Cn1nncc1CC(=O)NC(c1ccccc1)c1nc2ccccc2n1C (centres unmarked) [BAR-COM-4e090d3a-6] | 35.7
O=C(c1cc(=O)[nH]c2ccccc12)N1CCN(Cc2ccccc2)CC1 [BEN-DND-7e92b6ca-10] | 13.8
COc1cccc(N2CCN(C(=O)c3cc(=O)[nH]c4ccccc34)CC2)c1 [BEN-DND-7e92b6ca-12] | 13.6
COc1ccccc1N1CCN(C(=O)c2cc(=O)[nH]c3ccccc23)CC1 [BEN-DND-7e92b6ca-13] | 32.8
O=C(c1cc(=O)[nH]c2ccccc12)N1CCN(c2ccc(F)cc2)CC1 [BEN-DND-7e92b6ca-14] | 34.6
O=C(Nc1cncc2ccccc12)N1CCOc2ccc(Cl)cc21 [BEN-DND-f2e727cd-1] | 11.4
O=C(NCCc1cccc(F)c1)C(c1cccnc1)N(C(=O)c1c[nH]cn1)c1ccc(OC(F)F)cc1 (centres unmarked) [BRU-THA-92256091-16] | 22.1
COc1ccc(N(C(=O)c2c[nH]cn2)C(C(=O)NCCc2cccc(F)c2)c2cccnc2)cc1 (centres unmarked) [BRU-THA-92256091-19] | 93.7
CS(=O)(=O)Cc1ccc(N(C(=O)c2c[nH]cn2)C(C(=O)NCCc2cccc(F)c2)c2cccnc2)cc1 (centres unmarked) [BRU-THA-92256091-20] | 41.1
COCc1ccc(N(C(=O)c2c[nH]cn2)C(C(=O)NCCc2cccc(F)c2)c2cccnc2)cc1 (centres unmarked) [BRU-THA-92256091-23] | 62.9
O=C(NCCc1cccc(F)c1)C(c1cccnc1)N(C(=O)c1c[nH]cn1)c1ccc(C2COC2)cc1 (centres unmarked) [BRU-THA-92256091-80] | 22.7
O=C(NCCc1cccc(F)c1)C(c1cccnc1)N(C(=O)c1c[nH]cn1)c1ccc(Cn2cccn2)cc1 (centres unmarked) [BRU-THA-92256091-86] | 35.5

Same assay, conditions: ML dataset, Origin ChEMBL; ref ChEMBL; cited from earlier work

SMILES | IC50 [µM]
C[C@H]1COc2c(N3CCN(C)CC3)c(F)cc3c(=O)c(C(=O)O)cn1c23 [CHEMBL33] | 7.6
O=C(O)c1ccc(S(=O)(=O)c2cc(Br)c(O)c(Br)c2)cc1 [CHEMBL212240] | 16
Nc1ncc(S(=O)(=O)c2ccc(Cl)cc2)c(N)n1 [CHEMBL213581] | 6
O=S(=O)(Cc1[nH]c(-c2ccc(Cl)s2)c[s+]1)c1cccs1 [CHEMBL215733] | 18
O=C(Oc1cncc(Br)c1)c1ccco1 [CHEMBL222234, O=C(c1ccco1)Oc1cc(Br)cnc1, reference compound] | 0.05
O=C(Oc1cncc(Cl)c1)c1cscn1 [CHEMBL222628, O=C(c1cscn1)Oc1cc(Cl)cnc1, reference compound] | 0.27
O=C(Oc1cncc(Cl)c1)c1ccc(-c2ccc(Cl)cc2)o1 [CHEMBL222769, O=C(c1ccc(-c(cc2)ccc2Cl)o1)Oc1cc(Cl)cnc1, reference compound] | 0.063
O=C(Oc1cncc(Cl)c1)c1ccco1 [CHEMBL222840, O=C(c1ccco1)Oc1cc(Cl)cnc1, reference compound] | 0.06
O=C(Oc1cncc(Cl)c1)c1cc2ccccc2s1 [CHEMBL222893, O=C(c1cc(cccc2)c2s1)Oc1cc(Cl)cnc1, reference compound] | 0.095
O=C(Oc1cncc(Cl)c1)c1cc2ccccc2[nH]1 [CHEMBL225515, O=C(c1cc(cccc2)c2[nH]1)Oc1cc(Cl)cnc1, reference compound] | 0.065
